Data: ChEMBL document CHEMBL1144473, “Selective inhibition of carboxylesterases by isatins, indole-2,3-diones” (J Med Chem, 2007)
Activity calls are given as the source filed them. The rule behind the calls is not given here.

How the values were obtained:
Cholinesterase = Cholinesterase (Homo sapiens, UniProt P06276)
Acetylcholinesterase = Acetylcholinesterase (Homo sapiens, UniProt P22303)
Liver carboxylesterase 1 [1] = biological target: T1, Liver carboxylesterase 1 (Homo sapiens, UniProt P23141); assay: Inhibition of human liver CE1 expressed in sf21 cells; type: cell-based
T1 sequence (P23141 whole entry): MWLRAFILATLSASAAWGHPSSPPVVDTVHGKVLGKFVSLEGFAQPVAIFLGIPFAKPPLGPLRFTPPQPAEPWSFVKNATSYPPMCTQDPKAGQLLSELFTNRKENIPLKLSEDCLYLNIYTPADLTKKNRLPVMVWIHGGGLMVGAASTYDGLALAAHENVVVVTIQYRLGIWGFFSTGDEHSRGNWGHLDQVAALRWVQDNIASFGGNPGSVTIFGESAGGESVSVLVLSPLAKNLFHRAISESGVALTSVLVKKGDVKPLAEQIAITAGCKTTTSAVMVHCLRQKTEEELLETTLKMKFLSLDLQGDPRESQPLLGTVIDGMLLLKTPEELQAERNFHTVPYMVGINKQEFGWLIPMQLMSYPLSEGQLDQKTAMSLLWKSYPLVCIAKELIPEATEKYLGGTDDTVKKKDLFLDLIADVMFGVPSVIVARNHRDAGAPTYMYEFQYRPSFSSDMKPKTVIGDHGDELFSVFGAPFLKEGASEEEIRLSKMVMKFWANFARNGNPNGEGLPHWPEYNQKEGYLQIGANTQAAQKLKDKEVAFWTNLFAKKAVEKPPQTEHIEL

[2] = Inhibition of human intestinal carboxylesterase expressed in sf21 cells
[3] = Inhibition of rabbit liver carboxylesterase expressed in sf21 cells; type: cell-based, Oryctolagus cuniculus
[4] = Inhibition of human intestinal carboxylesterase expressed in sf21 cells up to 100 uM
Liver carboxylesterase 1 [5] = biological target: T1, Liver carboxylesterase 1; assay: Inhibition of human liver CE1 expressed in sf21 cells up to 100 uM
[6] = Inhibition of rabbit liver carboxylesterase expressed in sf21 cells up to 100 uM; conditions: Oryctolagus cuniculus

Sequence of Acetylcholinesterase (P22303 whole entry): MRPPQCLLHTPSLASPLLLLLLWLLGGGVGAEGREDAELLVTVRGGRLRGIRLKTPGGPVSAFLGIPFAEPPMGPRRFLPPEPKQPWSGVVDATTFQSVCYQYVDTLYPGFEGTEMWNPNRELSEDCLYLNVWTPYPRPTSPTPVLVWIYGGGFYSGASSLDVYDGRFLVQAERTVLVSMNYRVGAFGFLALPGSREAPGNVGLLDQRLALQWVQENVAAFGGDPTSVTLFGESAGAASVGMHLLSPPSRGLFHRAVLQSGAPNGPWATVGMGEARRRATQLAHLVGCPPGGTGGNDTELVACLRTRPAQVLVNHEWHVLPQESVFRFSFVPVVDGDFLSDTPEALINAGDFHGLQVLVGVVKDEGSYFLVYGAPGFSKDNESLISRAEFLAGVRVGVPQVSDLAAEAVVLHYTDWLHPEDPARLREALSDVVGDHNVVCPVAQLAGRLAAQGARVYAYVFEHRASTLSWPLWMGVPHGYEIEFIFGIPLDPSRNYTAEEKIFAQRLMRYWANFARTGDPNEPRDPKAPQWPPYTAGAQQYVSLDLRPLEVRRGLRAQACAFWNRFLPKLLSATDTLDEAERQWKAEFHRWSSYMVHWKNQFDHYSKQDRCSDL
Sequence of Cholinesterase (P06276 whole entry): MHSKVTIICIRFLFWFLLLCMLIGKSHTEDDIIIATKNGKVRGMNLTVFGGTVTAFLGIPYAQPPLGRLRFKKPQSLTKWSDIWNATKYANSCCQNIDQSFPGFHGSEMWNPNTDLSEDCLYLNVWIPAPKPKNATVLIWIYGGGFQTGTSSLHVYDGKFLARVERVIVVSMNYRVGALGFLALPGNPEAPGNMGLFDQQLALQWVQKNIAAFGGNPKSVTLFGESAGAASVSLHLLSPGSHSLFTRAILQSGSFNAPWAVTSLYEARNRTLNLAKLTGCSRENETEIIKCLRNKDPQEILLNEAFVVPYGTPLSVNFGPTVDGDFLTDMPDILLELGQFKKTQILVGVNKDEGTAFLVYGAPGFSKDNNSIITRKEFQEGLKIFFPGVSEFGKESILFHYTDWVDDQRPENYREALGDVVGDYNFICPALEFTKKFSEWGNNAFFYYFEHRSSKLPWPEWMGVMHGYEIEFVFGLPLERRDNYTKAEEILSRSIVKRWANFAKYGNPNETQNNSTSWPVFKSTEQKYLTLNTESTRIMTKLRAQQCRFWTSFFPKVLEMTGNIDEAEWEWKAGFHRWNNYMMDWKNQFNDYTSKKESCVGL

Activity (Liver carboxylesterase 1 [5])	Structure (SMILES)	Ki (Cholinesterase) [µM]	Ki (Acetylcholinesterase) [µM]	Ki (Liver carboxylesterase 1 [1]) [µM]	Ki [2] [µM]	Ki [3] [µM]	Activity [4]	Activity [6]
–	O=C(O)CN1C(=O)C(=O)c2ccccc21	> 100	> 100	> 100	> 100	> 100	–	–
Not Active	O=C1NC(=O)c2ccccc21 [PHTHALIMIDE]	–	–	–	–	–	inactive	inactive
–	O=C1C(=O)N(CNc2ccc(Br)cc2)c2ccccc21	> 100	> 100	0.58	0.17	1.25	–	–
–	O=C1C(=O)N(CN2CCCCC2)c2ccccc21	> 100	> 100	> 100	27.4	> 100	–	–
–	O=C1Nc2c(F)cccc2C1=O	> 100	> 100	> 100	> 100	> 100	–	–
–	O=C1C(=O)N(CN2CCOCC2)c2ccccc21	> 100	> 100	> 100	22.5	> 100	–	–
Not Active	C1=Cc2ccccc2C1 [INDENE]	–	–	–	–	–	inactive	inactive
–	CCc1ccc2c(c1)NC(=O)C2=O	> 100	> 100	> 100	> 100	29.5	–	–
–	NC(=O)CN1C(=O)C(=O)c2ccccc21	> 100	> 100	> 100	> 100	> 100	–	–
Not Active	O=C1CC(=O)c2ccccc21	–	–	–	–	–	inactive	inactive
–	O=C1C(=O)N(CCI)c2ccccc21	> 100	> 100	0.13	0.74	2.15	–	–
–	CCc1cccc2c1C(=O)C(=O)N2	> 100	> 100	> 100	37.9	34.9	–	–
–	O=C1Nc2ccc(F)cc2C1=O [5-FLUOROISATIN]	> 100	> 100	> 100	> 100	> 100	–	–
–	O=C1C(=O)N(CNc2ccc3ccccc3c2)c2ccccc21	> 100	> 100	> 100	0.11	> 100	–	–
–	O=C1C(=O)N(Cc2ccc(Cl)c(Cl)c2)c2ccccc21	12.6	48.2	0.031	0.067	0.065	–	–
–	O=C1C(=O)N(CN2CCSCC2)c2ccccc21	98.9	> 100	> 100	22.2	> 100	–	–
–	O=C(CN1C(=O)C(=O)c2ccccc21)Nc1ccc(O)cc1	> 100	> 100	> 100	> 100	> 100	–	–
–	O=C1Nc2c(C(=O)O)cccc2C1=O	> 100	> 100	> 100	> 100	> 100	–	–
–	Cc1ccc2c(c1)C(=O)C(=O)N2	> 100	> 100	> 100	> 100	26.2	–	–
–	O=C1C(=O)N(CCBr)c2ccccc21	28.1	> 100	0.29	1.58	5.15	–	–

Activity (Liver carboxylesterase 1 [5])	Structure (SMILES)	Ki (Cholinesterase) [µM]	Ki (Acetylcholinesterase) [µM]	Ki (Liver carboxylesterase 1 [1]) [µM]	Ki [2] [µM]	Ki [3] [µM]	Activity [4]	Activity [6]
–	O=C1Nc2ccc([N+](=O)[O-])cc2C1=O [5-NITROISATIN]	> 100	> 100	> 100	> 100	6.43	–	–
–	Cc1cc(C)c2c(c1)C(=O)C(=O)N2	> 100	> 100	> 100	84.6	30.5	–	–
–	C=C(C)CN1C(=O)C(=O)c2cc(Br)ccc21	> 100	> 100	0.066	0.28	0.13	–	–
Not Active	O=C1Nc2ccccc2/C1=N/O	–	–	–	–	–	inactive	inactive
–	O=C1C(=O)N(C(=O)CCl)c2ccccc21	> 100	> 100	> 100	> 100	> 100	–	–
–	O=C1Nc2c(Cl)cccc2C1=O	30.6	> 100	11.4	9.55	4.51	–	–
–	O=C1Nc2ccccc2C1=O [ISATIN]	> 100	> 100	> 100	> 100	> 100	–	–
–	COc1cccc2c1NC(=O)C2=O	> 100	> 100	> 100	> 100	16.1	–	–
–	O=C1C(=O)N(CO)c2ccccc21	> 100	> 100	> 100	34.5	> 100	–	–
–	Cc1cccc2c1NC(=O)C2=O	> 100	> 100	> 100	> 100	> 100	–	–
Not Active	N/N=C1\C(=O)Nc2ccccc21	–	–	–	–	–	inactive	inactive
–	Cc1ccc(NCN2C(=O)C(=O)c3ccccc32)cc1	18.1	> 100	2.65	1.08	7.4	–	–
Not Active	c1ccc2[nH]ccc2c1 [INDOLE]	–	–	–	–	–	inactive	inactive
–	Cc1ccc(C)c2c1NC(=O)C2=O	> 100	> 100	> 100	30.8	> 100	–	–
–	O=C1Nc2cc(Cl)c(Cl)cc2C1=O	> 100	> 100	21	16.6	0.49	–	–
–	O=C1Nc2ccc(Br)cc2C1=O	> 100	> 100	31.7	13.3	1.32	–	–
–	COc1ccc2c(c1)C(=O)C(=O)N2 [5-METHOXYISATIN]	> 100	> 100	> 100	> 100	26.7	–	–
–	COc1cc(NCN2C(=O)C(=O)c3ccccc32)cc(OC)c1OC	> 100	> 100	19.5	2.69	> 100	–	–
Not Active	O=C1c2ccccc2C(=O)N1c1ccccc1 [N-PHENYL-PHTHALIMIDE]	–	–	–	–	–	inactive	inactive
–	O=C1C(=O)N(c2ccccc2)c2ccccc21 [PHENYL ISATIN]	68.8	> 100	0.023	–	–	–	–

Structure (SMILES)	Activity (Liver carboxylesterase 1 [5])	Ki (Cholinesterase) [µM]	Ki (Acetylcholinesterase) [µM]	Ki (Liver carboxylesterase 1 [1]) [µM]	Ki [2] [µM]	Ki [3] [µM]	Activity [4]	Activity [6]
c1ccc2c(c1)CCN2 [INDOLINE]	Not Active	–	–	–	–	–	inactive	inactive
c1ccc2c(c1)CCC2	Not Active	–	–	–	–	–	inactive	inactive
